Read-outs that look alike come from different tables or passages of the source.
How the values were obtained:
[1] = test system: GABAA; assay: Safety47 Ion Channel GABAA; format: cell-based; settings: for IC50: read-out: RC50 (IC50); for EC50: read-out: RC50 (EC50)
[2] = molecular target: T1, hERG (Homo sapiens, UniProt Q12809); assay: Safety47 Ion Channel hERG; format: cell-based; settings: Blocker; for IC50: read-out: RC50 (IC50); for Emax: human, read-out: Max Response
T1 construct: purchased Eurofins Panlab (Safety47 Safety Scan, contract panel)

[3] = molecular target: T2, DRD2S (Homo sapiens, UniProt P14416); assay: Safety47 cAMP DRD2S; format: cell-based; settings: for Emax: read-out: Max Response; for EC50: read-out: RC50 (EC50); for IC50: read-out: RC50 (IC50)
T2 construct: purchased Eurofins Panlab Safety47 Safety Scan

[4] = molecular target: T3, ADRB1 (Homo sapiens, UniProt P08588); assay: Safety47 cAMP ADRB1; format: cell-based; settings: for Emax: read-out: Max Response; for EC50: read-out: RC50 (EC50); for IC50: read-out: RC50 (IC50)
T3 construct: purchased Eurofins Panlab Safety47 Safety Scan

[5] = molecular target: T4, HRH2 (Homo sapiens, UniProt P25021); assay: Safety47 cAMP HRH2; format: cell-based; settings: for Emax: read-out: Max Response; for EC50: read-out: RC50 (EC50); for IC50: read-out: RC50 (IC50)
T4 construct: purchased Eurofins Panlab Safety47 Safety Scan

[6] = molecular target: T5, ROCK1 (Homo sapiens, UniProt Q13464); assay: Safety47 Kinase Binding ROCK1; settings: Kinases, Inhibitor; for Emax: read-out: Max Response; for IC50: read-out: RC50 (IC50)
T5 construct: purchased Eurofins Panlab (Safety47 Safety Scan, contract panel)

[7] = molecular target: T6, ADRA2A (Homo sapiens, UniProt P08913); assay: Safety47 cAMP ADRA2A; format: cell-based; settings: for Emax: read-out: Max Response; for EC50: read-out: RC50 (EC50); for IC50: read-out: RC50 (IC50)
T6 construct: purchased Eurofins Panlab Safety47 Safety Scan
T6 sequence (P08913 1-465): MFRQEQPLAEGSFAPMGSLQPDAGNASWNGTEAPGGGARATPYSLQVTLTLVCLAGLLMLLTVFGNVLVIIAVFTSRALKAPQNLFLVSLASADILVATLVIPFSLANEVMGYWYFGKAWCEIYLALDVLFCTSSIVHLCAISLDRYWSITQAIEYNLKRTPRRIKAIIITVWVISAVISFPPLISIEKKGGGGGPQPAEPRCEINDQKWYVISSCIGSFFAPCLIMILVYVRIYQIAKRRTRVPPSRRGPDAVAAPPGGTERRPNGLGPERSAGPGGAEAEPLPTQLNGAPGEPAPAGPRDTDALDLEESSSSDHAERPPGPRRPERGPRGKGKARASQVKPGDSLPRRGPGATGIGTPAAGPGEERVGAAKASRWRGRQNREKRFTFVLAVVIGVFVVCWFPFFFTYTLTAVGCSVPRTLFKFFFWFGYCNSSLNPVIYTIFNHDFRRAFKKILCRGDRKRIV

[8] = molecular target: T7, AVPR1A (Homo sapiens, UniProt P37288); assay: Safety47 Calcium Flux AVPR1A; format: cell-based; settings: for Emax: read-out: Max Response; for EC50: read-out: RC50 (EC50); for IC50: read-out: RC50 (IC50)
T7 construct: purchased Eurofins Panlab Safety47 Safety Scan

[9] = molecular target: T8, NAV1.5 (Homo sapiens, UniProt Q14524); assay: Safety47 Ion Channel NAV1.5; format: cell-based; settings: Blocker; for Emax: read-out: Max Response; for IC50: read-out: RC50 (IC50)
T8 construct: purchased Eurofins Panlab (Safety47 Safety Scan, contract panel)

[10] = molecular target: T9, OPRM1 (Homo sapiens, UniProt P35372); assay: Safety47 cAMP OPRM1; format: cell-based; settings: for Emax: OPRM1, cAMP, read-out: Max Response; for EC50: read-out: RC50 (EC50); for IC50: read-out: RC50 (IC50)
T9 construct: purchased Eurofins Panlab (Safety47 Safety Scan, contract panel)

[11] = molecular target: T10, HTR3A (Homo sapiens, UniProt P46098); assay: Safety47 Ion Channel HTR3A; format: cell-based; settings: for Emax: read-out: Max Response; for IC50: read-out: RC50 (IC50); for EC50: read-out: RC50 (EC50)
T10 construct: purchased Eurofins Panlab (Safety47 Safety Scan, contract panel)
T10 sequence (P46098 24-478): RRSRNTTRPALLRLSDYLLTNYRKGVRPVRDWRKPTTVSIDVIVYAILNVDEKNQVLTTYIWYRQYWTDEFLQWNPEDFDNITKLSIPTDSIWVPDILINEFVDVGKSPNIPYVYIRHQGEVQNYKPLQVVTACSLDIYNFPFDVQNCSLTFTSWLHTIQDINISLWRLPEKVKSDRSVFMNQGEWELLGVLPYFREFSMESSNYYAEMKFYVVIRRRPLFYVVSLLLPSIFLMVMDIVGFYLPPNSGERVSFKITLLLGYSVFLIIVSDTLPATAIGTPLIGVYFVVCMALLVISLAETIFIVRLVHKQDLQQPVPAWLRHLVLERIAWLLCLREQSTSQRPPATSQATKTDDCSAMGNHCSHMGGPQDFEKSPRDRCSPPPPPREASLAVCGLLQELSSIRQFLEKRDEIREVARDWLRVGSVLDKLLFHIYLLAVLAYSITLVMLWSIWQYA

[12] = molecular target: DCAF7 / phosphorylated TFEB peptide (Ser138, Ser142) (Homo sapiens, UniProt P61962); assay: TFEB peptide binding assay with recombinant DCAF7; settings: DCAF7 preincubated with compound
[13] = molecular target: T11, CHRM3 (Homo sapiens, UniProt P20309); assay: Safety47 Calcium Flux CHRM3; format: cell-based; settings: for Emax: read-out: Max Response; for EC50: read-out: RC50 (EC50); for IC50: read-out: RC50 (IC50)
T11 construct: purchased Eurofins Panlab Safety47 Safety Scan

[14] = molecular target: T12, MAOA (Homo sapiens, UniProt P21397); assay: Safety47 Enzymatic MAOA; format: biochemical; settings: Inhibitor; for Emax: read-out: Max Response; for IC50: read-out: RC50 (IC50)
T12 construct: purchased Eurofins Panlab (Safety47 Safety Scan, contract panel)
T12 sequence (P21397 1-527): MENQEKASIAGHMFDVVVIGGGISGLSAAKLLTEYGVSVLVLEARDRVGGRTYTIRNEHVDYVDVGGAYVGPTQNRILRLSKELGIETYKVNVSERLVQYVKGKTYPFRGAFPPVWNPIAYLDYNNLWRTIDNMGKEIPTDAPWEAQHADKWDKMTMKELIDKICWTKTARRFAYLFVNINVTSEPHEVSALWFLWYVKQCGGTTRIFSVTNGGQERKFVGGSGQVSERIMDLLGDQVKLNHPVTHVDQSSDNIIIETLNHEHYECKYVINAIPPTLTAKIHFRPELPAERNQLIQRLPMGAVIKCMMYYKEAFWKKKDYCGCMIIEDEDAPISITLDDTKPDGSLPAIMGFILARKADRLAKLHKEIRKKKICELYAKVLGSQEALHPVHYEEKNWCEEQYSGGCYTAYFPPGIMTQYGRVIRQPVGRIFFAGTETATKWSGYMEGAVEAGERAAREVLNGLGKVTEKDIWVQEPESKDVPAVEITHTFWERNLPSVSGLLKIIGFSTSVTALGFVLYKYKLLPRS

T8 sequence (Q14524 whole entry): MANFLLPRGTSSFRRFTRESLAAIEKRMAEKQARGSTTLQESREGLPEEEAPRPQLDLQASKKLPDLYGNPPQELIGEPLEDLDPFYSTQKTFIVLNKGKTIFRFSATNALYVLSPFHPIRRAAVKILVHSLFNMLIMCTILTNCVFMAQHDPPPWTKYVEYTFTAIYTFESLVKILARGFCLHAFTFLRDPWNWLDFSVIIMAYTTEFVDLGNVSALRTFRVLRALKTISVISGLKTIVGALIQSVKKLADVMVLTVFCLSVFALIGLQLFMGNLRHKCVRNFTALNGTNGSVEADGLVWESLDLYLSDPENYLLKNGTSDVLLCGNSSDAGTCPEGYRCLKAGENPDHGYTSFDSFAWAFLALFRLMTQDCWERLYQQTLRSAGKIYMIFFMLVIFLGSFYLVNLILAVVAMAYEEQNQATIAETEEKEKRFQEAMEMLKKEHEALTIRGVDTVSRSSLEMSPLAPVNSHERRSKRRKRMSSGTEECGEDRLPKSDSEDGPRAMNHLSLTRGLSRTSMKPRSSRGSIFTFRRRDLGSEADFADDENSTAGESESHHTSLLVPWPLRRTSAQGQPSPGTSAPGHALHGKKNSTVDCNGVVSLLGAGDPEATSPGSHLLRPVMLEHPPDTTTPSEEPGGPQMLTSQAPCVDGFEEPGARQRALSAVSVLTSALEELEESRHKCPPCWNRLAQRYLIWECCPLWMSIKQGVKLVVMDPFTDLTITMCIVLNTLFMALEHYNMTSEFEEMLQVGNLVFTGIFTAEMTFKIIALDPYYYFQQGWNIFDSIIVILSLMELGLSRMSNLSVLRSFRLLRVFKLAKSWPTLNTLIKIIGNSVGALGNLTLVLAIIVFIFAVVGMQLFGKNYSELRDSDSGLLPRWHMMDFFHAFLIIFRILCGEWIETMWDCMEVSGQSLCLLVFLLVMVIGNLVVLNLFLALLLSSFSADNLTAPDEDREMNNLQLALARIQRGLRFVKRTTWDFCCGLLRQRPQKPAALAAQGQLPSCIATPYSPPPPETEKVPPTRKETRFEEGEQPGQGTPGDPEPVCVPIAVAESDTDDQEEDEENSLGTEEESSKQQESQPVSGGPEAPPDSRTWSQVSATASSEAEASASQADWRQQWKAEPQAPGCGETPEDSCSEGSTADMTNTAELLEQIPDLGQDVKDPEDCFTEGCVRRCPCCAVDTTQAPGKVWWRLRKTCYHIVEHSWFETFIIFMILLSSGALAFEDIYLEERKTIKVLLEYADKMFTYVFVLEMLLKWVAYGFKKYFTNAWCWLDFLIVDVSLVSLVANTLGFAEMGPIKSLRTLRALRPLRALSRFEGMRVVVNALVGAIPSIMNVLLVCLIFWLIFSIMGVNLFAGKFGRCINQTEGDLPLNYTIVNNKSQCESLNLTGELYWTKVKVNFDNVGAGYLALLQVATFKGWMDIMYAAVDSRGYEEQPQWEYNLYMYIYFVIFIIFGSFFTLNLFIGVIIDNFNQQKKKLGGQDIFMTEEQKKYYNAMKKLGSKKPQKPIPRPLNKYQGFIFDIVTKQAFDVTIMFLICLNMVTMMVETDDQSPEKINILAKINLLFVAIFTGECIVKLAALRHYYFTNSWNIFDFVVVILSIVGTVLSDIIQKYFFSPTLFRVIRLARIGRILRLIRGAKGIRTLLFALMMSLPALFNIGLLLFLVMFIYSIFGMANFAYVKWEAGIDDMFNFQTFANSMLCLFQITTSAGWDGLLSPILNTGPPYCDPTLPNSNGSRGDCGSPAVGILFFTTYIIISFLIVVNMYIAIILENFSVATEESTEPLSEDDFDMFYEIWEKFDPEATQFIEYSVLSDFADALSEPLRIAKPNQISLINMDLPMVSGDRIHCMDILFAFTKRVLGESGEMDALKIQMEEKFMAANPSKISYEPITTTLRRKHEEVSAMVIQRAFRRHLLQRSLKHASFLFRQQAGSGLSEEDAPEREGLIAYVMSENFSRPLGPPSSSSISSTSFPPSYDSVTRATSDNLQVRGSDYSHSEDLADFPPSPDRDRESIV
T7 sequence (P37288 whole entry): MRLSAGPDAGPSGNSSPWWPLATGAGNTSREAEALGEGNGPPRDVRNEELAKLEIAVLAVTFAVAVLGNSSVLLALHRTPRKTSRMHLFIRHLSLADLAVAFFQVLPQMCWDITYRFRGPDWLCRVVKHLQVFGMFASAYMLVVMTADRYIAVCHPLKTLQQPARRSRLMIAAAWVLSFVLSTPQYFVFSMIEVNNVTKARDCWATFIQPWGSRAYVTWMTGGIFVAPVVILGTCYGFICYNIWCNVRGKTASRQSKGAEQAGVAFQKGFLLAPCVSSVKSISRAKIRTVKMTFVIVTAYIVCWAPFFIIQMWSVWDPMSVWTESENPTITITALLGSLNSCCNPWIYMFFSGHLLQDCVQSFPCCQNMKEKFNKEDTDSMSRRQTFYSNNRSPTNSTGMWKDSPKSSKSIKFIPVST
T11 sequence (P20309 whole entry): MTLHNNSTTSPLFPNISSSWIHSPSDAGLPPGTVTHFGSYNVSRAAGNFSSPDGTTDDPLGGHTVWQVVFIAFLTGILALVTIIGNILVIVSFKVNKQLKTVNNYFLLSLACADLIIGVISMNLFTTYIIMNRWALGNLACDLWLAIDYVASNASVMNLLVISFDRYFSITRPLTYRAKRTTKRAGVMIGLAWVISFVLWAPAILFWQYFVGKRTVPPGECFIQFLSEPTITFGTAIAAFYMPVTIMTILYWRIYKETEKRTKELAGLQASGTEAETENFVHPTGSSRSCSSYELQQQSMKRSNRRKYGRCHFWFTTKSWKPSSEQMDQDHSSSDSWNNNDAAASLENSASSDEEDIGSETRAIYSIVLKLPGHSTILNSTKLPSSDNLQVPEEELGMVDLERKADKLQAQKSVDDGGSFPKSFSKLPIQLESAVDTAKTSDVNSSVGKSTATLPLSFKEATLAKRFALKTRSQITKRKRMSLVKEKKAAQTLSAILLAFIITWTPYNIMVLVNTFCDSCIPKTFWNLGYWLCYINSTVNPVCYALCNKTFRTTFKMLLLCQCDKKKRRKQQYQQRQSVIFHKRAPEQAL
T1 sequence (Q12809 whole entry): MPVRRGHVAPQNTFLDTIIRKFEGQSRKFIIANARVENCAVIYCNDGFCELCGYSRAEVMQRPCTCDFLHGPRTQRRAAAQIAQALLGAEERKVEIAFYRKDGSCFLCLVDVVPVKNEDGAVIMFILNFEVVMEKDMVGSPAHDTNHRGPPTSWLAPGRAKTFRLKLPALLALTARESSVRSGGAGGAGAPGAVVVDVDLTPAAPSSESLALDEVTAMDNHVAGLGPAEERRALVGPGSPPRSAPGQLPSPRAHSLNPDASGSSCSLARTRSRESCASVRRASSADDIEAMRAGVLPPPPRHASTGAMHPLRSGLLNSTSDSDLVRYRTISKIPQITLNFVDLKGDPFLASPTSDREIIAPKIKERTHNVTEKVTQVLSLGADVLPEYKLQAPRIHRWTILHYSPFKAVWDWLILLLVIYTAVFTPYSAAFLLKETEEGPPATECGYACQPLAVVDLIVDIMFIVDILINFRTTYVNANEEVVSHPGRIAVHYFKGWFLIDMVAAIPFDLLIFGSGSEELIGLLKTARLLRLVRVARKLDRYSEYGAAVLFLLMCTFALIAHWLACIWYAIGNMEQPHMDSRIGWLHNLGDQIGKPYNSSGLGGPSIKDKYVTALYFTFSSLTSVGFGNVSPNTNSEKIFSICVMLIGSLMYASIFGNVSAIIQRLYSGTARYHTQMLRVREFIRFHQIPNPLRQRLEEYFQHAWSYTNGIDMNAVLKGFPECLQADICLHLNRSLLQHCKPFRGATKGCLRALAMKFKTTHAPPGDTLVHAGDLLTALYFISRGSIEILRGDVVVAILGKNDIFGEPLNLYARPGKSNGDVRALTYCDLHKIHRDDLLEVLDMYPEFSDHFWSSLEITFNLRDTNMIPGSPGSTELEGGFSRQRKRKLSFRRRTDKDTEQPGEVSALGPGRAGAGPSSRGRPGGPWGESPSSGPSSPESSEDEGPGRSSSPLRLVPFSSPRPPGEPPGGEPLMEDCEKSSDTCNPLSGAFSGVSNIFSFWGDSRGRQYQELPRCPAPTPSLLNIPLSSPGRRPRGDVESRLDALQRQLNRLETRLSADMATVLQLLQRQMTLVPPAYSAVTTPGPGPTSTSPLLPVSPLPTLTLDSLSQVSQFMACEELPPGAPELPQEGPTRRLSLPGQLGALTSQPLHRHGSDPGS
T3 sequence (P08588 whole entry): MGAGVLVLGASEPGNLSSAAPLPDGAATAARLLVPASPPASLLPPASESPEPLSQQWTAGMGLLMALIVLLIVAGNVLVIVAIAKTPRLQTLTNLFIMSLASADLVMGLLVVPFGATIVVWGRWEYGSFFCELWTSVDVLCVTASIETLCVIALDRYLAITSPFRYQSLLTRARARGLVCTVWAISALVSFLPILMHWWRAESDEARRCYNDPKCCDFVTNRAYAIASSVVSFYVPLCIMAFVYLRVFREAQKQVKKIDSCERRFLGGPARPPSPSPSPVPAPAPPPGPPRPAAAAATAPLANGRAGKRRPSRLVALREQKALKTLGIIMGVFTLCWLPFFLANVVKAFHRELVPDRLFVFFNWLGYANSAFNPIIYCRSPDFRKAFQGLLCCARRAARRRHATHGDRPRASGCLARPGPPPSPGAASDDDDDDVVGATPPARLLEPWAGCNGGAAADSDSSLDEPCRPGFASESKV
T9 sequence (P35372 whole entry, species assumed): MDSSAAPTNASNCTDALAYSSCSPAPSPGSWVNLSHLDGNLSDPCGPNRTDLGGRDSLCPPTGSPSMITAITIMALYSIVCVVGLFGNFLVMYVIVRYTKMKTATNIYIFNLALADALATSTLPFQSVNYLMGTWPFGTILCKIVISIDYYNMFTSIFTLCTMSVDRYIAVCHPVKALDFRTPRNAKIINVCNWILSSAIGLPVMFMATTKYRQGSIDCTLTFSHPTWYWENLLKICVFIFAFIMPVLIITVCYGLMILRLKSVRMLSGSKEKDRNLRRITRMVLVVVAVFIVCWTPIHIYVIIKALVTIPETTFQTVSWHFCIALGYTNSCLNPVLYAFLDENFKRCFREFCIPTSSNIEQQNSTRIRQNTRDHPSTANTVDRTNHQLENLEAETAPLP

For `Cl.c1ccc2c(Nc3ccc4[nH]ccc4c3)nc(-c3ccncc3)nc2c1` [BC18630, N-1H-indol-5-yl-2-pyridin-4-ylquinazolin-4-amine hydrochloride], the “Max Response” value ([1]; Blocker) was 27.61, the IC50 ([1]; Blocker) was over 10 µM and the “Max Response” value ([1]; Opener) was 0.97. It also gave an EC50 ([1]; Opener) of over 10 µM, an IC50 [2] of over 10 µM and an Emax [2] of 6.14%. It also gave an Emax ([3]; Agonist) of 0.87%, an EC50 ([3]; Agonist) of over 10 µM and an Emax ([3]; Antagonist) of 24.3%. It also gave an IC50 ([3]; Antagonist) of over 10 µM, an Emax ([4]; Agonist) of 0.54% and an EC50 ([4]; Agonist) of over 10 µM. For the same compound, the Emax ([4]; Antagonist) was 44.8%, the IC50 ([4]; Antagonist) was over 10 µM and the Emax ([5]; Agonist) was 0%. For the same compound, the EC50 ([5]; Agonist) was over 10 µM, the “Curve Bottom” value ([5]; Antagonist) was -8.58 and the “Curve Top” value ([5]; Antagonist) was 73.68. It also gave a Hill ([5]; Antagonist) of 1, an Emax ([5]; Antagonist) of 43.2% and an IC50 ([5]; Antagonist) of 6.01 µM. It also gave an Emax [6] of 20.8%, an IC50 [6] of over 10 µM and an Emax ([7]; Agonist) of 0%. It also gave an EC50 ([7]; Agonist) of over 10 µM, an IC50 ([7]; Antagonist) of over 10 µM and an Emax ([8]; Agonist) of 8.97%. For the same compound, the EC50 ([8]; Agonist) was over 10 µM, the Emax ([8]; Antagonist) was 15.9% and the IC50 ([8]; Antagonist) was over 10 µM. The Emax [9] was 30%, the IC50 [9] was over 10 µM and the Emax ([10]; Agonist) was 8.65%. The Emax ([10]; Antagonist) was 49.4%, the EC50 ([10]; cAMP, Agonist) was over 10 µM and the IC50 ([10]; cAMP, Antagonist) was over 10 µM. The “Curve Bottom” value ([11]; Blocker) was 0, the “Curve Top” value ([11]; Blocker) was 100 and the Hill ([11]; Blocker) was 1.9. It also gave an Emax ([11]; Blocker) of 69.9%, an IC50 ([11]; Blocker) of 6.43 µM and an Emax ([11]; Opener) of 0%. The EC50 ([11]; Opener) was over 10 µM, the “In vitro peptide binding” value [12] was “reduced” and the Emax ([13]; Agonist) was 0%. The EC50 ([13]; Agonist) was over 10 µM, the Emax ([13]; Antagonist) was 13.7% and the IC50 ([13]; Antagonist) was over 10 µM. It also gave an Emax [14] of 57% and an IC50 [14] of over 10 µM.

With `Cl.Fc1cc(Nc2nc(-c3ccncc3)nc3ncccc23)cc2cc[nH]c12` [BC18813, N-(7-fluoro-1H-indol-5-yl)-2-pyridin-4-ylpyrido[2,3-d]pyrimidin-4-amine hydrochloride] the “Max Response” value ([1]; Blocker) was 19.98, the IC50 ([1]; Blocker) was over 10 µM and the “Max Response” value ([1]; Opener) was 0.77. The EC50 ([1]; Opener) was over 10 µM, the IC50 [2] was over 10 µM and the Emax [2] was 4.86%. It also gave an Emax ([3]; Agonist) of 13.5%, an EC50 ([3]; Agonist) of over 10 µM and an Emax ([3]; Antagonist) of 5.93%. The IC50 ([3]; Antagonist) was over 10 µM, the Emax ([4]; Agonist) was 2.22% and the EC50 ([4]; Agonist) was over 10 µM. It also gave an Emax ([4]; Antagonist) of 42.9%, an IC50 ([4]; Antagonist) of over 10 µM and an Emax ([5]; Agonist) of 0%. For the same compound, the EC50 ([5]; Agonist) was over 10 µM, the Emax ([5]; Antagonist) was 45.8% and the IC50 ([5]; Antagonist) was over 10 µM. It also gave an Emax [6] of 22.8%, an IC50 [6] of over 10 µM and an Emax ([7]; Agonist) of 38.8%. For the same compound, the EC50 ([7]; Agonist) was over 10 µM, the Emax ([7]; Antagonist) was 0% and the IC50 ([7]; Antagonist) was over 10 µM. It also gave an Emax ([8]; Agonist) of 1.07%, an EC50 ([8]; Agonist) of over 10 µM and an Emax ([8]; Antagonist) of 16%. For the same compound, the IC50 ([8]; Antagonist) was over 10 µM, the Emax [9] was 8.29% and the IC50 [9] was over 10 µM. It also gave an Emax ([10]; Agonist) of 24.4%, an Emax ([10]; Antagonist) of 53.3% and an EC50 ([10]; cAMP, Agonist) of over 10 µM. For the same compound, the “Curve Bottom” value ([10]; cAMP, Antagonist) was -9.93, the “Curve Top” value ([10]; cAMP, Antagonist) was 100 and the Hill ([10]; cAMP, Antagonist) was 1.01. The IC50 ([10]; cAMP, Antagonist) was 7.46 µM, the Emax ([11]; Blocker) was 0% and the IC50 ([11]; Blocker) was over 10 µM. For the same compound, the Emax ([11]; Opener) was 0.03%, the EC50 ([11]; Opener) was over 10 µM and the “In vitro peptide binding” value [12] was “reduced”. It also gave an Emax ([13]; Agonist) of 0.56%, an EC50 ([13]; Agonist) of over 10 µM and an Emax ([13]; Antagonist) of 16.6%. For the same compound, the IC50 ([13]; Antagonist) was over 10 µM, the Emax [14] was 22.2% and the IC50 [14] was over 10 µM.

Source: paper PMC12136031 (Science Advances, 2025)
